Earlier results as cited in patent US20160030469A1, “Human End Uses for a Gas Transporting Rheological Medium” (priority 2014, published 2016).

Settings: equilibrium with air (pO2=0.21) at 77° F.

Structure (SMILES): O=O [oxygen]
- solubility limit of oxygen in water: approximately 8.3 mg/l
